Reference: patent publication US8653096B2, “Chemokine receptor antagonists and methods of use thereof” (Millennium Pharmaceuticals, Inc., priority 2001, dated 2014)
pIC50: −log10 of the molar value.

Biological target: T1, RANTES/MIP-1α chemokine receptor (CCR1) in THP-1 cell membranes (Homo sapiens, UniProt P32246)
T1 construct: Membranes were prepared from THP-1 cells (ATCC #TIB202); host or cells: THP-1 cells (membrane preparation)
T1 sequence (P32246 1-355): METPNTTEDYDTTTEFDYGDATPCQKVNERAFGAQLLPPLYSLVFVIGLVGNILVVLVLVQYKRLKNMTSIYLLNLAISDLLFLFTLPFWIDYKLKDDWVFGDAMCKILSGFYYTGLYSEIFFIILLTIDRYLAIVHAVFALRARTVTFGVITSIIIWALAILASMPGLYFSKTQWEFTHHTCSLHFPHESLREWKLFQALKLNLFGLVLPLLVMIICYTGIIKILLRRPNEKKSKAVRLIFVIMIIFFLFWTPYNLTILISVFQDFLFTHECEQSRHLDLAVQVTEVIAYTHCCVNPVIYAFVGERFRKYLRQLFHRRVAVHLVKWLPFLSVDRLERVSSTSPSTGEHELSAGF
Experiment: Receptor binding assay: 125I-RANTES or 125I-MIP-1α binding to THP-1 cell membranes
Settings: inhibitor concentration required for 50% inhibition of specific binding; 125I-RANTES or 125I-MIP-1α as ligand, THP-1 cell membranes; read-out: IC50
Experimental: Membranes were prepared from THP-1 cells (ATCC #TIB202). Cells were harvested by centrifugation, washed twice with PBS (phosphate-buffered saline), and the cell pellets were frozen at −70 to −85° C. The frozen pellet was thawed in ice-cold lysis buffer consisting of 5 mM HEPES (N-2-hydroxyethylpiperazine-N′-2-ethane-sulfonic acid) pH 7.5, 2 mM EDTA (ethylenediaminetetraacetic acid), 5 μg/ml each aprotinin, leupeptin, and chymostatin (protease inhibitors), and 100 μg/ml PMSF (phenyl methane sulfonyl fluoride—also a protease inhibitor), at a concentration of 1 to 5×10^7 cells/ml. This procedure results in cell lysis. The suspension was mixed well to resuspend all of the frozen cell pellet. Nuclei and cell debris were removed by centrifugation of 400×g for 10 minutes at 4° C. The supernatant was transferred to a fresh tube and the membrane fragments were collected by centrifugation at 25,000×g for 30 minutes at 4° C. The supernatant was aspirated and the pellet was resuspended in freezing buffer consisting of 10 mM HEPES pH 7.5, 300 mM sucrose, 1 μg/ml each aprotinin, leupeptin, and chymostatin, and 10 μg/ml PMSF (approximately 0.1 ml per each 10^8 cells). All clumps were resolved using a minihomogenizer, and the total protein concentration was determined using a protein assay kit (Bio-Rad, Hercules, Calif., cat #500-0002). The membrane solution was then aliquoted and frozen at −70 to −85° C. until needed.
Binding Assays utilized the membranes described above. […] The binding reactions were performed in 60 to 100 μl of a binding buffer consisting of 10 mM HEPES pH 7.2, 1 mM CaCl2, 5 mM MgCl2, and 0.5% BSA (bovine serum albumin), for 60 min at room temperature. The binding reactions were terminated by harvesting the membranes by rapid filtration through glass fiber filters (GF/B or GF/C, Packard) which were presoaked in 0.3% polyethyleneimine. The filters were rinsed with approximately 600 μl of binding buffer containing 0.5 M NaCl, dried, and the amount of bound radioactivity was determined by scintillation counting in a Topcount beta-plate counter.
Specific binding is defined as the total binding minus the non-specific binding; non-specific binding is the amount of cpm still detected in the presence of excess unlabeled Rantes or MIP-1α.

**Q.** How did the pIC50 turn out when “4-(4-Chlorophenyl)-1-[3-(5,11-dihydro-7-(2-propoxy)carbonyl-[1]benzoxepino[2,3-b]pyridin-5-ylidene) propyl]piperidine-4-ol [Example 428]” was run?
**A.** The pIC50 was over 6.00.

**Q.** “4-(4-Chlorophenyl)-1-[3-(5,11-dihydro-7-(ethoxycarbonylmethyl)-oxycarbonyl-[1]benzoxepino[2,3-b]pyridin-5-ylidene) propyl]piperidine-4-ol [Example 424]” was tested. Which pIC50 did it give?
**A.** Its pIC50 is over 6.00.

**Q.** With “4-(4-Chlorophenyl)-1-[3-(5,11-dihydro-7-cyclohexyloxycarbonyl-[1]benzoxepino[2,3-b]pyridin-5-ylidene)propyl]piperidine-4-ol [Example 425]” as the substance, how does the pIC50 read?
**A.** Its pIC50 is over 6.00.

**Q.** With “4-(4-Chlorophenyl)-1-[3-(5,11-dihydro-7-cyclopentyl-oxycarbonyl-[1]benzoxepino[2,3-b]pyridin-5-ylidene) propyl]piperidine-4-ol [Example 429]” as the substance, how does the pIC50 read?
**A.** The pIC50 was over 6.00.

**Q.** How did the pIC50 turn out when “4-(4-Chlorophenyl)-1-[3-(5,11-dihydro-7-dimethylaminocarbonylmethyloxy[1]benzoxepino[2,3-b]pyridin-5-ylidene)propyl]piperidin-4-ol [Example 134]” was run?
**A.** The pIC50 was over 6.00.

**Q.** How did the pIC50 turn out when “4-(4-Chlorophenyl)-1-[3-(5,11-dihydro-7-dimethylaminocarbonylmethyloxy[1]benzoxepino[2,3-b]pyridin-5-ylidene)propyl]piperidine [Example 155]” was run?
**A.** The pIC50 was over 6.00.

**Q.** With “4-(4-Chlorophenyl)-1-[3-(5,11-dihydro-7-ethoxy [1]benzoxepino[2,3-b]pyridin-5-ylidene)propyl]piperidin-4-ol [Example 46]” as the substance, how does the pIC50 read?
**A.** The pIC50 was over 6.00.

**Q.** With “4-(4-Chlorophenyl)-1-[3-(5,11-dihydro-7-ethoxy[1]benzoxepino[2,3-b]pyridin-5-ylidene)propyl]piperidine [Example 152]” as the substance, how does the pIC50 read?
**A.** The pIC50 was over 6.00.

**Q.** With “4-(4-Chlorophenyl)-1-[3-(5,11-dihydro-7-ethoxycarbonyl-[1]benzoxepino[2,3-b]pyridin-5-ylidene) propyl]piperidine-4-ol [Example 423]” as the substance, how does the pIC50 read?
**A.** The pIC50 was over 6.00.

**Q.** With “4-(4-Chlorophenyl)-1-[3-(5,11-dihydro-7-ethoxycarbonylmethyloxy[1]benzoxepino[2,3-b]pyridin-5-ylidene)propyl]piperidin-4-ol [Example 48]” as the substance, how does the pIC50 read?
**A.** Its pIC50 is over 6.00.

**Q.** How did the pIC50 turn out when “4-(4-Chlorophenyl)-1-[3-(5,11-dihydro-7-ethyl[1]benzoxepino[2,3-b]pyridin-5-ylidene)propyl]piperidin-4-ol [Example 163]” was run?
**A.** Its pIC50 is over 6.00.

**Q.** With “4-(4-Chlorophenyl)-1-[3-(5,11-dihydro-7-hydroxy [1]benzoxepino[2,3-b]pyridin-5-ylidene)propyl]piperidin-4-ol [Example 44]” as the substance, how does the pIC50 read?
**A.** Its pIC50 is over 6.00.

**Q.** With “4-(4-Chlorophenyl)-1-[3-(5,11-dihydro-7-hydroxy[1]benzoxepino[2,3-b]pyridin-5-ylidene)propyl]piperidine [Example 151]” as the substance, how does the pIC50 read?
**A.** Its pIC50 is over 6.00.

**Q.** With “4-(4-Chlorophenyl)-1-[3-(5,11-dihydro-7-isopropoxy[1]benzoxepino[2,3-b]pyridin-5-ylidene)propyl]piperidin-4-ol [Example 47]” as the substance, how does the pIC50 read?
**A.** Its pIC50 is over 6.00.

**Q.** How did the pIC50 turn out when “4-(4-Chlorophenyl)-1-[3-(5,11-dihydro-7-methoxy[1]benzoxepino[2,3-b]pyridin-5-ylidene)propyl]-1,2,3,6-tetrahydropyridine [Example 194]” was run?
**A.** The pIC50 was over 6.00.

**Q.** “4-(4-Chlorophenyl)-1-[3-(5,11-dihydro-7-methoxy[1]benzoxepino[2,3-b]pyridin-5-ylidene)propyl]piperidin-4-ol [Example 45]” was tested. Which pIC50 did it give?
**A.** Its pIC50 is over 6.00.

**Q.** How did the pIC50 turn out when “4-(4-Chlorophenyl)-1-[3-(5,11-dihydro-7-methoxy[1]benzoxepino[2,3-b]pyridin-5-ylidene)propyl]piperidine [Example 65]” was run?
**A.** Its pIC50 is over 6.00.

**Q.** “4-(4-Chlorophenyl)-1-[3-(5,11-dihydro-7-methylaminocarbonyl[1]benzoxepino[2,3-b]pyridin-5-ylidene)propyl]piperidin-4-ol [Example 268]” was tested. Which pIC50 did it give?
**A.** The pIC50 was over 6.00.

**Q.** “4-(4-Chlorophenyl)-1-[3-(5,11-dihydro-7-methylaminocarbonylmethyloxy[1]benzoxepino[2,3-b]pyridin-5-ylidene)propyl]piperidin-4-ol [Example 182]” was tested. Which pIC50 did it give?
**A.** The pIC50 was over 6.00.

**Q.** How did the pIC50 turn out when “4-(4-Chlorophenyl)-1-[3-(5,11-dihydro-7-morpholinocarbonylmethyloxy[1]benzoxepino[2,3-b]pyridin-5-ylidene)propyl]piperidin-4-ol [Example 135]” was run?
**A.** Its pIC50 is over 6.00.

**Q.** “4-(4-Chlorophenyl)-1-[3-(5,11-dihydro-7-phenyl[1]benzoxepino[2,3-b]pyridin-5-ylidene)propyl]piperidin-4-ol [Example 291]” was tested. Which pIC50 did it give?
**A.** The pIC50 was over 6.00.

**Q.** How did the pIC50 turn out when “4-(4-Chlorophenyl)-1-[3-(5,11-dihydro-7-propargyloxy[1]benzoxepino [2,3-b]pyridin-5-ylidene)propyl]piperidin-4-ol [Example 173]” was run?
**A.** Its pIC50 is over 6.00.

**Q.** With “4-(4-Chlorophenyl)-1-[3-(5,11-dihydro-7-propoxy[1]benzoxepino[2,3-b]pyridin-5-ylidene)propyl]piperidin-4-ol [Example 128]” as the substance, how does the pIC50 read?
**A.** Its pIC50 is over 6.00.

**Q.** “4-(4-Chlorophenyl)-1-[3-(5,11-dihydro-8-methoxy[1]benzoxepino[2,3-b]pyridin-5-ylidene)propyl]piperidin-4-ol [Example 114]” was tested. Which pIC50 did it give?
**A.** The pIC50 was over 6.00.

**Q.** How did the pIC50 turn out when “4-(4-Chlorophenyl)-1-[3-(5,11-dihydro-9-methoxy[1]benzoxepino[2,3-b]pyridin-5-ylidene)propyl]piperidin-4-ol [Example 166]” was run?
**A.** Its pIC50 is over 5.00.

**Q.** “4-(4-Chlorophenyl)-1-[3-(5,11-dihydro[1]benzothiepino[2,3-b]pyridin-5-ylidene)propyl]piperidin-4-ol [Example 111]” was tested. Which pIC50 did it give?
**A.** The pIC50 was over 6.00.

**Q.** With “4-(4-Chlorophenyl)-1-[3-(7-(2-ethoxycarboxy)ethyl-5,11-dihydro[1]benzoxepino[2,3-b]pyridin-5-ylidene)propyl]piperidin-4-ol [Example 288]” as the substance, how does the pIC50 read?
**A.** Its pIC50 is over 6.00.

**Q.** How did the pIC50 turn out when “4-(4-Chlorophenyl)-1-[3-(7-(2-furyl)-5,11-dihydro[1]benzoxepino[2,3-b]pyridin-5-ylidene)propyl]piperidin-4-ol [Example 292]” was run?
**A.** Its pIC50 is over 6.00.

**Q.** “4-(4-Chlorophenyl)-1-[3-(7-carboxymethyl-5,11-dihydro[1]benzoxepino[2,3-b]pyridin-5-ylidene)propyl]piperidin-4-ol [Example 120]” was tested. Which pIC50 did it give?
**A.** Its pIC50 is over 6.00.

**Q.** With “4-(4-Chlorophenyl)-1-[3-(7-cyanomethyloxy-5,11-dihydro[1]benzoxepino[2,3-b]pyridin-5-ylidene)propyl]piperidin-4-ol [Example 49]” as the substance, how does the pIC50 read?
**A.** The pIC50 was over 6.00.

**Q.** “4-(4-Chlorophenyl)-1-[3-(7-cyclopentoxy-5,11-dihydro[1]benzoxepino[2,3-b]pyridin-5-ylidene)propyl]piperidin-4-ol [Example 174]” was tested. Which pIC50 did it give?
**A.** Its pIC50 is over 6.00.

**Q.** How did the pIC50 turn out when “4-(4-Chlorophenyl)-1-[3-(7-cyclopropylmethyloxy-5,11-dihydro [1]benzoxepino[2,3-b]pyridin-5-ylidene)propyl]piperidin-4-ol [Example 130]” was run?
**A.** The pIC50 was over 6.00.

**Q.** With “4-(4-Chlorophenyl)-1-[3-(7-diethylaminocarbonyl-5,11-dihydro[1]benzoxepino[2,3-b]pyridin-5-ylidene)propyl]piperidin-4-ol [Example 270]” as the substance, how does the pIC50 read?
**A.** Its pIC50 is over 6.00.

**Q.** How did the pIC50 turn out when “4-(4-Chlorophenyl)-1-[3-(7-diethylaminocarbonylmethyloxy-5,11-dihydro[1]benzoxepino[2,3-b]pyridin-5-ylidene)propyl]piperidin-4-ol [Example 263]” was run?
**A.** The pIC50 was over 6.00.

**Q.** “4-(4-Chlorophenyl)-1-[3-(7-dimethylaminocarbonyl-5,11-dihydro[1]benzoxepino[2,3-b]pyridin-5-ylidene)propyl]piperidin-4-ol [Example 198]” was tested. Which pIC50 did it give?
**A.** Its pIC50 is over 6.00.

**Q.** How did the pIC50 turn out when “4-(4-Chlorophenyl)-1-[3-(7-dimethylaminocarbonylmethyl-5,11-dihydro[1]benzoxepino[2,3-b]pyridin-5-ylidene)propyl]piperidin-4-ol [Example 122]” was run?
**A.** Its pIC50 is over 6.00.
